Source: patent US8008291B2 (Mimetica Pty Ltd, priority 2008, dated 2011)

Target: T1, human MC5R (hMC5R) (Homo sapiens, UniProt P33032)
T1 construct: purchased Perkin Elmer RBXMC5M400UA
Assay: Human MC5R radioligand binding assay (membranes, [125I] NDP-MSH displacement)
Details: hMC5R binding; tested as trifluoroacetate or hydrochloride salts, or free bases; read-out: MC5R radioligand IC50
In short: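 Displacement of [125I]NDP-MSH (radioiodinated in house, HPLC-purified) from hMC5R membranes by test compound measured after 1 hr incubation at 37° C.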

T1 sequence (P33032 whole entry): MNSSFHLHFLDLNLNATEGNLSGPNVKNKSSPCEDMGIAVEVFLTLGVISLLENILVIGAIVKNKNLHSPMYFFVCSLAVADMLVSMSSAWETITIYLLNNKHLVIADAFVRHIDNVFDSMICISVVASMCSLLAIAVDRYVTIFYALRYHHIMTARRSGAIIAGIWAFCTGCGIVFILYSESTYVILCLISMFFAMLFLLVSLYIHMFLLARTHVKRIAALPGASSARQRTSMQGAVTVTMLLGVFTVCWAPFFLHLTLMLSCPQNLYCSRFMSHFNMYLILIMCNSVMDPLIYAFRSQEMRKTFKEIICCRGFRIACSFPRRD

For CC(C)NCC[C@@H]1N[C@H](CNC(=O)c2ccc(Cl)c(Cl)c2)CCN(CC(c2ccccc2)c2ccccc2)C1=O [Compound 383, 3,4-dichloro-N-(((3S,5S)-1-(2,2-diphenylethyl)-3-(2-(isopropylamino)ethyl)-2-oxo-1,4-diazepan-5-yl)methyl)benzamide], which IC50 is on record?
The IC50 was under 1000 nM.

Which IC50 does the source give for NCC[C@@H]1N[C@H](CCNC(=O)c2ccc3ccccc3c2)CCN(CC(c2ccccc2)c2ccccc2)C1=O [Compound 303, N-(2-((3S,5R)-1-(2,2-diphenylethyl)-2-oxo-3-(2-aminoethyl)-1,4-diazepan-5-yl)ethyl)-2-naphthamide] here?
Its IC50 is under 1000 nM.

With CC[C@H](CN1CC[C@@H](CNC(=O)c2ccc(Cl)c(Cl)c2)N[C@@H](CCN2CCCCC2)C1=O)C(C)C [Compound 462, 3,4-dichloro-N-(((3S,5S)-1-((S)-2-ethyl-3-methylbutyl)-2-oxo-3-(2-(piperidin-1-yl)ethyl)-1,4-diazepan-5-yl)methyl)benzamide] as the compound, how does the IC50 read?
Its IC50 is under 100 nM.

With CC(C)C(CN1CC[C@@H](CNC(=O)c2ccc3ccccc3c2)N[C@@H](CCN)C1=O)c1ccccc1 (stereo partly drawn) [Compound 388, N-(((3S,5S)-3-(2-aminoethyl)-1-(3-methyl-2-phenylbutyl)-2-oxo-1,4-diazepan-5-yl)methyl)-2-naphthamide] as the compound, how does the IC50 read?
Its IC50 is under 10000 nM.

CS(=O)(=O)NCC[C@@H]1N[C@H](CNC(=O)c2ccc(Cl)c(Cl)c2)CCN(Cc2ccc(Cl)cc2Cl)C1=O [Compound 504, 3,4-dichloro-N-(((3S,5S)-1-(2,4-dichlorobenzyl)-3-(2-(methylsulfonamido)ethyl)-2-oxo-1,4-diazepan-5-yl)methyl)benzamide] was tested. Which IC50 did it give?
The IC50 was under 10000 nM.

For O=C(NC[C@@H]1CCN(Cc2cc(Cl)cc(Cl)c2Cl)C(=O)[C@H](CCN2CCCCC2)N1)c1ccc2cc(Cl)ccc2c1 [Compound 522, 6-chloro-N-(((3S,5S)-2-oxo-3-(2-(piperidin-1-yl)ethyl)-1-(2,3,5-trichlorobenzyl)-1,4-diazepan-5-yl)methyl)-2-naphthamide], which IC50 is on record?
Its IC50 is under 100 nM.

With CC1CCC(C)N1CC[C@@H]1N[C@H](CNC(=O)/C=C/c2ccc(Cl)cc2)CCN(CC(c2ccccc2)c2ccccc2)C1=O (stereo partly drawn) [Compound 405, (E)-3-(4-chlorophenyl)-N-(((3S,5S)-3-(2-(2,5-dimethylpyrrolidin-1-yl)ethyl)-1-(2,2-diphenylethyl)-2-oxo-1,4-diazepan-5-yl)methyl)acrylamide] as the compound, how does the IC50 read?
The IC50 was under 100 nM.

How did the IC50 turn out when NCCC[C@@H]1N[C@H](CNC(=O)c2ccc3ccccc3c2)CCN(Cc2c(Cl)cccc2Cl)C1=O [Compound 315, N-(((3S,5S)-3-(3-aminopropyl)-1-(2,6-dichlorobenzyl)-2-oxo-1,4-diazepan-5-yl)methyl)-2-naphthamide] was run?
The IC50 was under 10000 nM.

How did the IC50 turn out when CC[C@H](CN1CC[C@@H](CNC(=O)c2ccc3cc(Cl)ccc3c2)N[C@@H](CCN2CCCC2)C1=O)c1ccccc1 [Compound 409, 6-chloro-N-(((3S,5S)-2-oxo-1-((S)-2-phenylbutyl)-3-(2-(pyrrolidin-1-yl)ethyl)-1,4-diazepan-5-yl)methyl)-2-naphthamide] was run?
Its IC50 is under 10 nM.

How did the IC50 turn out when NCCC[C@@H]1N[C@H](CNC(=O)c2ccc3ccccc3c2)CCN(Cc2ccc(Cl)c(Cl)c2)C1=O [Compound 320, N-(((3S,5S)-3-(3-aminopropyl)-1-(3,4-dichlorobenzyl)-2-oxo-1,4-diazepan-5-yl)methyl)-2-naphthamide] was run?
Its IC50 is under 10000 nM.

How did the IC50 turn out when CCC(CN1CC[C@@H](CNC(=O)c2ccc3ccccc3c2)N[C@@H](CCCN2CCCCC2)C1=O)c1ccccc1 (stereo partly drawn) [Compound 342, N-(((3S,5S)-2-oxo-1-(2-phenylbutyl)-3-(3-(piperidin-1-yl)propyl)-1,4-diazepan-5-yl)methyl)-2-naphthamide] was run?
The IC50 was under 100 nM.

For NCCC[C@@H]1N[C@H](CNC(=O)c2ccc3cc(Br)ccc3c2)CCN(CC(c2ccccc2)c2ccccc2)C1=O [Compound 211, N-(((3S,5S)-3-(3-aminopropyl)-1-(2,2-diphenylethyl)-2-oxo-1,4-diazepan-5-yl)methyl)-6-bromo-2-naphthamide], which IC50 is on record?
The IC50 was under 100 nM.

For Cc1c(C(=O)NC[C@@H]2CCN(CC(c3ccccc3)c3ccccc3)C(=O)[C@H](CCCN)N2)cnn1-c1ccccc1 [Compound 241, N-(((3S,5S)-3-(3-aminopropyl)-1-(2,2-diphenylethyl)-2-oxo-1,4-diazepan-5-yl)methyl)-5-methyl-1-phenyl-1H-pyrazole-4-carboxamide], which IC50 is on record?
Its IC50 is under 10000 nM.

N=C(N)NCCC[C@@H]1N[C@H](CNC(=O)c2ccc(-c3ccccc3)cc2)CCN(CC2CCCCC2)C1=O [Compound 480, N-(((3S,5S)-1-(cyclohexylmethyl)-3-(3-guanidinopropyl)-2-oxo-1,4-diazepan-5-yl)methyl)biphenyl-4-carboxamide] was tested. Which IC50 did it give?
Its IC50 is under 1000 nM.

Which IC50 does the source give for CC[C@H](CN1CC[C@@H](CNC(=O)c2ccc3ccccc3c2)N[C@@H](CCCN)C1=O)c1ccccc1 [Compound 385, N-(((3S,5S)-3-(3-aminopropyl)-2-oxo-1-((S)-2-phenylbutyl)-1,4-diazepan-5-yl)methyl)-2-naphthamide] here?
The IC50 was under 1000 nM.

CC(=O)N[C@H](CN1CC[C@@H](CNC(=O)c2ccc3ccccc3c2)N[C@@H](CCCNC(=N)N)C1=O)c1ccccc1 [Compound 265, N-(((3S,5S)-1-((S)-2-acetamido-2-phenylethyl)-3-(3-guanidinopropyl)-2-oxo-1,4-diazepan-5-yl)methyl)-2-naphthamide] was tested. Which IC50 did it give?
The IC50 was under 10000 nM.

O=C(NC[C@@H]1CCN(Cc2cc(Cl)cc(Cl)c2)C(=O)[C@H](CCN2CCCCC2)N1)c1cc(-c2ccc(Cl)cc2)on1 [Compound 527, 5-(4-chlorophenyl)-N-(((3S,5S)-1-(3,5-dichlorobenzyl)-2-oxo-3-(2-(piperidin-1-yl)ethyl)-1,4-diazepan-5-yl)methyl)isoxazole-3-carboxamide] was tested. Which IC50 did it give?
Its IC50 is under 100 nM.

For CC(CN1CC[C@@H](CNC(=O)c2ccc3ccccc3c2)N[C@@H](CCCNC(=N)N)C1=O)(c1ccccc1)c1ccccc1 [Compound 200, N-(((3S,5S)-1-(2,2-diphenylpropyl)-3-(3-guanidinopropyl)-2-oxo-1,4-diazepan-5-yl)methyl)-2-naphthamide], which IC50 is on record?
Its IC50 is under 1000 nM.

For C[C@@H](N1CC[C@@H](CNC(=O)c2ccc3ccccc3c2)N[C@@H](CCCNC(=N)N)C1=O)C(F)(c1ccccc1)c1ccccc1 [Compound 206, N-(((3S,5S)-1-((R)-1-fluoro-11-diphenylpropan-2-yl)-3-(3-guanidinopropyl)-2-oxo-1,4-diazepan-5-yl)methyl)-2-naphthamide], which IC50 is on record?
The IC50 was under 1000 nM.

With CC[C@H](CN1CC[C@@H](CNC(=O)c2ccc3cc(Cl)ccc3c2)N[C@@H](CCNC(C)C)C1=O)c1ccccc1 [Compound 440, 6-chloro-N-(((3S,5S)-3-(2-(isopropylamino)ethyl)-2-oxo-1-((S)-2-phenylbutyl)-1,4-diazepan-5-yl)methyl)-2-naphthamide] as the compound, how does the IC50 read?
Its IC50 is under 10 nM.

Which IC50 does the source give for NCC[C@@H]1N[C@H](CNC(=O)c2ccc3cc(Cl)ccc3c2)CCN(Cc2cc(Cl)cc(Cl)c2)C1=O [Compound 466, N-(((3S,5S)-3-(2-aminoethyl)-1-(3,5-dichlorobenzyl)-2-oxo-1,4-diazepan-5-yl)methyl)-6-chloro-2-naphthamide] here?
The IC50 was under 100 nM.

For N=C(N)NCCC[C@@H]1N[C@H](CNC(=O)[C@H]2Cc3ccccc3CN2)CCN(CC(c2ccccc2)c2ccccc2)C1=O [Compound 134, (R)—N-(((3S,5S)-1-(2,2-diphenylethyl)-3-(3-guanidinopropyl)-2-oxo-1,4-diazepan-5-yl)methyl)-1,2,3,4-tetrahydroisoquinoline-3-carboxamide], which IC50 is on record?
The IC50 was under 1000 nM.

O=C(NC[C@@H]1CCN(CC(c2ccccc2)c2ccccc2)C(=O)[C@H](CCN2CCCCC2)N1)c1ccc(C(F)(F)F)cc1 [Compound 434, N-(((3S,5S)-1-(2,2-diphenylethyl)-2-oxo-3-(2-(piperidin-1-yl)ethyl)-1,4-diazepan-yl)methyl)-4-(trifluoromethyl)benzamide] was tested. Which IC50 did it give?
Its IC50 is under 100 nM.

How did the IC50 turn out when CC[C@H](CN1CC[C@@H](CNC(=O)c2ccc3cc(Cl)ccc3c2)N[C@@H](CN2CCCCC2)C1=O)c1ccccc1 [Compound 415, 6-chloro-N-(((3S,5S)-2-oxo-1-((S)-2-phenylbutyl)-3-(piperidin-1-ylmethyl)-1,4-diazepan-5-yl)methyl)-2-naphthamide] was run?
The IC50 was under 100 nM.

Which IC50 does the source give for CC1CC(C)CC(CN2CC[C@@H](CNC(=O)c3ccc4ccccc4c3)N[C@@H](CCCNC(=N)N)C2=O)C1 (stereo partly drawn) [Compound 298, N-(((3S,5S)-1-((3,5-dimethylcyclohexyl)methyl)-3-(3-guanidinopropyl)-2-oxo-1,4-diazepan-5-yl)methyl)-2-naphthamide] here?
Its IC50 is under 100 nM.

How did the IC50 turn out when C=C(C)[C@@H](CC)CN1CC[C@@H](CNC(=O)c2ccc3cc(Cl)ccc3c2)N[C@@H](CCN2CCCCC2)C1=O [Compound 478, 6-chloro-N-(((3S,5S)-1-((R)-2-ethyl-3-methylbut-3-enyl)-2-oxo-3-(2-(piperidin-1-yl)ethyl)-1,4-diazepan-5-yl)methyl)-2-naphthamide] was run?
Its IC50 is under 100 nM.

Which IC50 does the source give for CC[C@H](CN1CC[C@@H](CNC(=O)c2ccc(Cl)c(Cl)c2)N[C@@H](CCN2CCN(C)CC2)C1=O)c1ccccc1 [Compound 431, 3,4-dichloro-N-(((3S,5S)-3-(2-(4-methylpiperazin-1-yl)ethyl)-2-oxo-1-((S)-2-phenylbutyl)-1,4-diazepan-5-yl)methyl)benzamide] here?
The IC50 was under 100 nM.

CC(C)NCC[C@@H]1N[C@H](CNC(=O)c2ccc(Cl)c(Cl)c2)CCN(Cc2cc(Cl)cc(Cl)c2)C1=O [Compound 439, 3,4-dichloro-N-(((3S,5S)-1-(3,5-dichlorobenzyl)-3-(2-(isopropylamino)ethyl)-2-oxo-1,4-diazepan-5-yl)methyl)benzamide] was tested. Which IC50 did it give?
Its IC50 is under 100 nM.

Which IC50 does the source give for CC[C@H](CN1CC[C@@H](CNCc2ccc(Cl)c(Cl)c2)N[C@@H](CCN2CCCCC2)C1=O)c1ccccc1 [Compound 485, (3S,5S)-5-((3,4-dichlorobenzylamino)methyl)-1-((S)-2-phenylbutyl)-3-(2-(piperidin-1-yl)ethyl)-1,4-diazepan-2-one] here?
The IC50 was under 100 nM.

With Cc1ccc(/C=C/C(=O)NC[C@@H]2CCN(CC(c3ccccc3)c3ccccc3)C(=O)[C@H](CCCNC(=O)C3CCCCC3)N2)cc1 [Compound 294, N-(3-((2S,7S)-4-(2,2-diphenylethyl)-3-oxo-7-(((E)-3-p-tolylacrylamido)methyl)-1,4-diazepan-2-yl)propyl)cyclohexanecarboxamide] as the compound, how does the IC50 read?
The IC50 was under 1000 nM.
